Patent US6528655B1, “Aromatic derivatives with HIV integrase inhibitory properties” (Pharmacor, Inc., priority 2000, dated 2003)
Read-outs that look alike come from different tables or passages of the source.

Molecular target: HIV-1 integrase (Human immunodeficiency virus type 1 group M subtype B, UniProt P04585)
Assay: HIV-1 integrase inhibition assay (radiolabeled duplex substrate corresponding to the U5 end of the HIV LTR)
Type: biochemical
Description: For the purpose of Table 1 to 4, the HIV-1 integrase inhibition assay was carried out following a known procedure (Burke, Jr. T. R. et al., J. Med. Chem. 38, 4171-4178 (1995)). A suitable radiolabeled duplex substrate corresponding to the U5 end of the HIV LTR was used.
For the purposes of Table 1 to 4 the HIV-1 integrase inhibition assay was based on a known procedure (Hazuda, D. J. et al., Nucleic Acids Res. 22 1121-1122 (1994)).

[1] = Table 4, compounds of formula I′, read-out: IC50

Compound	IC50	IC50 [1]
COc1ccc(OC)c(NC(=O)[C@H](CCC(=O)NC(c2ccccc2)(c2ccccc2)c2ccccc2)NC(=O)c2cc3ccccc3[nH]2)c1 [Example 84, N-[Nα-(Indole-2-carbonyl)-Nδ-trityl-L-glutaminyl]-2,5-dimethoxyaniline]	4.1 µM	
COc1ccc(OC)c(NC(=O)[C@H](CCC(=O)NC(c2ccccc2)(c2ccccc2)c2ccccc2)NC(=O)c2cc(O)c3cccc(O)c3n2)c1 [Example 85, N-[Nα-(4,8-Dihydroxyquinoline-2-carbonyl)-Nδ-trityl-L-glutaminyl]-2,5-dimethoxyaniline]	2.6 µM	
O=C(/C=C/c1c[nH]c2ccccc12)N[C@@H](Cc1cn(C(c2ccccc2)(c2ccccc2)c2ccccc2)cn1)C(=O)NCCc1ccc(O)c(O)c1 [Example 86, N-[Nα-(3-(3′-Indole)acryloyl)-Nτ-trityl-L-histidinyl]dopamine]	2 µM	
CC(C)(C)OC[C@H](NC(=O)Cc1cccs1)C(=O)NCCc1ccc(O)c(O)c1 [Example 87]	> 10 µM	
COc1ccc(OC)c(NC(=O)[C@H](CCC(=O)NC(c2ccccc2)(c2ccccc2)c2ccccc2)NC(=O)c2ccc[nH]2)c1 [Example 88, N-[Nα-(Pyrrole-2-carbonyl)-Nδ-trityl-L-glutaminyl]-2,5-dimethoxyaniline]	> 10 µM	
Cc1ccc(C(NC(=O)CC[C@H](NC(=O)/C=C/c2ccc(O)c(O)c2)C(=O)Nc2nccs2)(c2ccccc2)c2ccccc2)cc1 [Example 90, N-(Nα-Caffeoyl-Nδ-methyltrityl-L-glutaminyl)thiazole-2-amine]	0.834 µM	
COc1ccc(OC)c(NC(=O)[C@H](CCC(N)=O)NC(=O)c2ccc[nH]2)c1 [Example 91, N-(Nα-(Pyrrole-2-carbonyl)-L-glutaminyl]-2,5dimethoxyaniline]	> 10 µM	
CC(C)(C)OC[C@H](NC(=O)c1cccn1Cc1ccc(F)cc1)C(=O)NCCc1ccc(O)c(O)c1 [Example 93, N-[Nα-(N′-(4-Fluorobenzyl)pyrrole-2-carbonyl)-O-tert-butyl-L-seryl]dopamine]		> 10 µM
O=C(O)CC[C@H](NC(=O)c1cc2ccccc2n1Cc1ccc(F)cc1)C(=O)NCc1ccccc1 [Example 94, N-[Nα-(N′-(4-Fluorobenzyl)indole-2-carbonyl)-L-glutamyl]benzylamine]	9.25 µM	
CC(C)(C)OC[C@H](NC(=O)c1cc2ccccc2n1Cc1ccc(F)cc1)C(=O)NCCc1ccc(O)c(O)c1 [Example 95, N-[Nα-(N′-(4-Fluorobenzyl)indole-2-carbonyl)-O-tert-butyl-L-seryl]dopamine]	7 µM	
O=C(N[C@@H](CO)C(=O)NCCc1ccc(O)c(O)c1)c1cc2ccccc2n1Cc1ccc(F)cc1 [Example 96, N-[Nα-(N′-(4-Fluorobenzyl)indole-2-carbonyl)-L-seryl]dopamine]	> 10 µM	
CC(C)(C)OC[C@H](NC(=O)c1ccc(OCc2ccc(F)cc2)c(OCc2ccc(F)cc2)c1)C(=O)NCCc1ccc(O)c(O)c1 [Example 97, N-[Nα-(3,4-di-(4-Fluorobenzyloxy)benzoyl)-O-tert-butyl-L-seryl]dopamine]	2.9 µM	
O=C(C=Cc1ccc(OCc2ccc(F)cc2)c(OCc2ccc(F)cc2)c1)NCC(=O)NCCc1cccs1 [Example 98, N-[Nα-(3,4-di-(4-Fluorobenzyloxy)caffeoyl)-glycyl]-2-(2′-thiophenyl)ethylamine]		> 10 µM
CC(C)(C)OC(=O)CC[C@H](NC(=O)c1ccc(OCc2ccc(F)cc2)c(OCc2ccc(F)cc2)c1)C(=O)NCc1ccccc1 [Example 99, N-[Nα-(3,4-di-(4-Fluorobenzyloxy)benzoyl)-Oδ-tert-butyl-L-glutamyl]benzylamine]	> 10 µM	
O=C(C=Cc1ccc(OCc2ccc(F)cc2)c(OCc2ccc(F)cc2)c1)NCC(=O)NCCc1ccc(O)c(O)c1 [Example 100, N-[Nα-(3,4-di-(4-Fluorobenzyloxy)caffeoyl)-L-glycyl)dopamine]		2.6 µM
CC(C)(C)OC(=O)CC[C@H](NC(=O)c1cccn1Cc1ccc(F)cc1)C(=O)NCCc1cccs1 [Example 101, N-[Nα-(N′-(4-Fluorobenzyl)pyrrole-2-carbonyl)-Oδ-tert-butyl-L-glutamyl]-2-(2′-thiophenyl)ethylamine]	> 10 µM	
